Where a SMILES comes first, the peptide text is derived from it.
Target: T1, Interleukin-23 receptor (Homo sapiens, UniProt Q5VWK5)
T1 sequence (Q5VWK5 whole entry): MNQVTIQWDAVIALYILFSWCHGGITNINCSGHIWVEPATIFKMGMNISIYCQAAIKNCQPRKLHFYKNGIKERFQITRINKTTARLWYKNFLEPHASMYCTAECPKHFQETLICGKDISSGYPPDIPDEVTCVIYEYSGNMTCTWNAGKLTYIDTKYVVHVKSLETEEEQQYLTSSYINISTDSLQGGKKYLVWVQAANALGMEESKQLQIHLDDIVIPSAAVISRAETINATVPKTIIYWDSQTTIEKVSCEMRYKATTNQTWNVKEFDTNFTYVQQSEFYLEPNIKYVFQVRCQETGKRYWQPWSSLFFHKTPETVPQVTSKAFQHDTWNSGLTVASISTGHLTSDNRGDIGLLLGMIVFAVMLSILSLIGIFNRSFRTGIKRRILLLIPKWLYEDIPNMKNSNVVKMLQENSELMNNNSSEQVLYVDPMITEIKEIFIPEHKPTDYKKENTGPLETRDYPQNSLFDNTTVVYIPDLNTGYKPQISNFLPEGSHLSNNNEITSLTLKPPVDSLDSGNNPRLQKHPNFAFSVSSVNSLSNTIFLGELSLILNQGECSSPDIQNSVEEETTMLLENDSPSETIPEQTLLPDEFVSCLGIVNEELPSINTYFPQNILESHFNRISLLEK
Assay: Inhibition of interleukin-23 binding to human interleukin-23 receptor incubated for 2 hrs by competitive binding ELISA

Row | Structure (SMILES) | IC50 [µM]
1 | CC(=O)N[C@@H](CS)C(=O)N[C@@H](C)C(=O)N[C@@H](CC(=O)O)C(=O)N[C@@H](Cc1c[nH]c2ccccc12)C(=O)N[C@H](C(=O)N[C@@H](CS)C(=O)N[C@@H](Cc1ccc(O)cc1)C(=O)N[C@@H](Cc1cccc2ccccc12)C(=O)N(C)[C@@H](Cc1cnc[nH]1)C(=O)N[C@H](C)C(=O)N[C@@H](Cc1ccccc1)C(=O)NC(C)(C)C(N)=O)C(C)C | > 1
2 | C[C@@H](O)[C@H](NC(=O)[C@@H](NC(=O)[C@@H](N)CS)[C@@H](C)O)C(=O)N[C@@H](Cc1c[nH]c2ccccc12)C(=O)N[C@@H](CCCCN)C(=O)N[C@@H](CS)C(=O)N[C@@H](Cc1ccc(O)cc1)C(=O)N[C@@H](Cc1c[nH]c2ccccc12)C(=O)N[C@@H](Cc1cnc[nH]1)C(=O)N[C@@H](CCC(N)=O)C(=O)N[C@@H](Cc1ccc(O)cc1)C(=O)NCC(N)=O (H-CTTWKCYWHQYG-NH2) | 0.5 to 1
3 | CC(=O)N[C@@H](CS)C(=O)N[C@@H](C)C(=O)N[C@@H](CC(=O)O)C(=O)N[C@@H](Cc1c[nH]c2ccccc12)C(=O)N[C@H](C(=O)N[C@@H](CS)C(=O)N[C@@H](Cc1ccc(O)cc1)C(=O)N[C@@H](Cc1c[nH]c2ccccc12)C(=O)N[C@@H](Cc1cnc[nH]1)C(=O)N[C@@H](CCCCN)C(=O)N[C@@H](Cc1ccccc1)C(=O)NCC(=O)O)C(C)C | > 1
4 | CC(=O)N[C@@H](CS)C(=O)N[C@@H](C)C(=O)N[C@@H](CC(=O)O)C(=O)N[C@@H](Cc1c[nH]c2ccccc12)C(=O)N[C@H](C(=O)N[C@@H](CS)C(=O)N[C@@H](Cc1ccc(O)cc1)C(=O)N[C@@H](Cc1c[nH]c2ccccc12)C(=O)N[C@@H](Cc1cnc[nH]1)C(=O)N[C@H](C(=O)N[C@@H](Cc1ccccc1)C(=O)N[C@@H](CC(=O)O)C(=O)N[C@@H](CCCCNC(=O)COCC(=O)NCCCC[C@H](NC(=O)[C@H](CC(=O)O)NC(=O)[C@H](Cc1ccccc1)NC(=O)[C@@H](NC(=O)[C@H](Cc1cnc[nH]1)NC(=O)[C@H](Cc1c[nH]c2ccccc12)NC(=O)[C@H](Cc1ccc(O)cc1)NC(=O)[C@H](CS)NC(=O)[C@@H](NC(=O)[C@H](Cc1c[nH]c2ccccc12)NC(=O)[C@H](CC(=O)O)NC(=O)[C@H](C)NC(=O)[C@H](CS)NC(C)=O)C(C)C)[C@@H](C)O)C(=O)O)C(=O)O)[C@@H](C)O)C(C)C | > 10
5 | CC(C)[C@H](NC(=O)[C@H](Cc1cccc2ccccc12)NC(=O)[C@H](CC(=O)O)NC(=O)[C@H](C)NC(=O)[C@@H](N)CS)C(=O)N[C@@H](CS)C(=O)N[C@@H](Cc1ccc(O)cc1)C(=O)N[C@@H](Cc1c[nH]c2ccccc12)C(=O)N[C@@H](Cc1cnc[nH]1)C(=O)N[C@H](C(=O)N[C@@H](Cc1ccccc1)C(=O)NCC(N)=O)[C@@H](C)O | > 1
6 | CC[C@H](C)[C@H](NC(=O)[C@H](Cc1cnc[nH]1)NC(=O)[C@H](Cc1c[nH]c2ccccc12)NC(=O)[C@H](Cc1ccc(O)cc1)NC(=O)[C@H](CS)NC(=O)[C@H](CCCCN)NC(=O)[C@H](Cc1c[nH]c2ccccc12)NC(=O)[C@H](CC(=O)O)NC(=O)[C@H](CCCCN)NC(=O)[C@@H](N)CS)C(=O)N[C@@H](Cc1ccc(O)cc1)C(=O)NCC(N)=O (H-CKDWKCYWHIYG-NH2) | > 1
7 | COc1ccc(C[C@H](NC(=O)[C@@H](NC(=O)[C@H](CCC(N)=O)NC(=O)[C@H](Cc2c[nH]c3ccccc23)NC(=O)[C@@H](NC(=O)[C@H](CCC(N)=O)NC(=O)[C@@H](NC(C)=O)C(C)(C)S)[C@@H](C)O)C(C)(C)S)C(=O)N[C@@H](Cc2ccc3ccccc3c2)C(=O)N[C@@](C)(CCCCN)C(=O)N[C@@H](CCCCNC(CC(C)C)=C2C(=O)CC(C)(C)CC2=O)C(=O)N[C@@H](CC(N)=O)C(=O)NCC(N)=O)cc1 | 0.1 to 1
8 | CC(=O)NC1CC/C=C\CCC(C(=O)N[C@@H](Cc2ccc(O)cc2)C(=O)N[C@@H](Cc2c[nH]c3ccccc23)C(=O)N[C@@H](CCCNC(=N)N)C(=O)N[C@@H](CCCCN)C(=O)N[C@@H](Cc2ccccc2)C(=O)NCC(=O)NCCOCC(=O)N[C@H](CCCCN)C(N)=O)NC(=O)[C@H](CCC(N)=O)NC(=O)[C@H](Cc2c[nH]c3ccccc23)NC(=O)[C@H]([C@@H](C)O)NC(=O)[C@H](CCCNC(=N)N)NC1=O (some centres undefined) | 0.1 to 1
9 | CC(C)[C@H](NC(=O)[C@H](Cc1cnc[nH]1)NC(=O)[C@H](Cc1c[nH]c2ccccc12)NC(=O)[C@H](Cc1ccc(O)cc1)NC(=O)[C@H](CS)NC(=O)[C@H](CCC(=O)O)NC(=O)[C@H](Cc1c[nH]c2ccccc12)NC(=O)[C@H](CC(N)=O)NC(=O)CNC(=O)[C@@H](N)CS)C(=O)N[C@@H](Cc1ccc(O)cc1)C(=O)NCC(N)=O (H-CGNWECYWHVYG-NH2) | > 1
10 | CC(C)[C@H](NC(=O)[C@H](Cc1c[nH]c2ccccc12)NC(=O)[C@H](CC(=O)O)NC(=O)[C@H](C)NC(=O)[C@@H](N)CS)C(=O)N[C@@H](CS)C(=O)N[C@@H](Cc1ccc(O)cc1)C(=O)N1Cc2ccccc2C[C@H]1C(=O)N[C@@H](Cc1cnc[nH]1)C(=O)N[C@H](C(=O)N[C@@H](Cc1ccccc1)C(=O)NCC(N)=O)[C@@H](C)O | > 1
11 | CC(=O)N[C@@H](CS)C(=O)N[C@@H](C)C(=O)N[C@@H](CC(=O)O)C(=O)N[C@@H](Cc1c[nH]c2ccccc12)C(=O)N[C@H](C(=O)N[C@@H](CS)C(=O)N[C@@H](Cc1ccc(O)cc1)C(=O)N[C@@H](Cc1cccc2ccccc12)C(=O)N[C@@H](Cc1cnc[nH]1)C(=O)N[C@H](C(=O)N[C@@H](Cc1ccccc1)C(=O)NC(C)(C)C(N)=O)[C@@H](C)O)C(C)C | > 1

The remaining lines, values ahead:

Row | IC50 [µM] | Structure (SMILES)
12 | 6 | CC(=O)N[C@@H](CS)C(=O)N[C@@H](CCC(N)=O)C(=O)N[C@H](C(=O)N[C@@H](Cc1c[nH]c2ccccc12)C(=O)N[C@@H](CCC(N)=O)C(=O)N[C@@H](CS)C(=O)N[C@@H](CCc1ccc(O)cc1)C(=O)N[C@@H](Cc1c[nH]c2ccccc12)C(=O)N[C@@H](CCC(C)C)C(=O)N[C@@H](CCC(=O)O)C(=O)N[C@@H](CC(N)=O)C(=O)NCC(N)=O)[C@@H](C)O
13 | > 30 | CC(=O)N[C@@H](CS)C(=O)N[C@@H](CCC(N)=O)C(=O)N[C@H](C(=O)N[C@@H](Cc1c[nH]c2ccccc12)C(=O)N[C@@H](CCC(N)=O)C(=O)N[C@@H](CS)C(=O)N[C@@H](Cc1ccc(O)cc1)C(=O)N[C@H](CC(=O)N[C@@H](CCCNC(=N)N)C(=O)N[C@H](C(=O)N[C@@H](CC(N)=O)C(=O)NCC(=O)NCCOCC(=O)N[C@H](CCCCN)C(N)=O)C(C)C)Cc1cccc2ccccc12)[C@@H](C)O
14 | 0.5 to 1 | CC(=O)NCC(=O)NCC(=O)NCC(=O)N[C@@H](CCC(=O)O)C(=O)N[C@@H](CS)C(=O)N[C@@H](CCC(=O)O)C(=O)N[C@@H](CC(N)=O)C(=O)N[C@@H](Cc1c[nH]c2ccccc12)C(=O)N[C@@H](CCC(=O)O)C(=O)N[C@@H](CS)C(=O)N[C@@H](Cc1ccc(O)cc1)C(=O)N[C@@H](Cc1c[nH]c2ccccc12)C(=O)N[C@@H](Cc1cnc[nH]1)C(=O)N[C@H](C(=O)N[C@@H](Cc1ccccc1)C(=O)NCC(N)=O)[C@@H](C)O (Ac-GGGECENWECYWHTFG-NH2)
15 | 6 | CCC(CC)(NC(=O)[C@H](CCCN)NC(=O)[C@H](Cc1c[nH]c2ccccc12)NC(=O)[C@H](Cc1ccc(O)cc1)NC(=O)[C@H](CS)NC(=O)[C@@H](NC(=O)[C@H](Cc1c[nH]c2ccccc12)NC(=O)[C@H](CC(=O)O)NC(=O)[C@H](C)NC(=O)[C@H](CS)NC(C)=O)C(C)C)C(=O)N[C@@H](Cc1ccccc1)C(=O)NCC(=O)NCCOCC(=O)N[C@H](CCCCN)C(N)=O
16 | 0.5 to 1 | CC(=O)N[C@@H](CS)C(=O)N[C@@H](CCCNC(=N)N)C(=O)N[C@@H](CC(=O)O)C(=O)N[C@@H](Cc1c[nH]c2ccccc12)C(=O)N[C@H](C(=O)N[C@@H](CS)C(=O)N[C@@H](Cc1ccc(O)cc1)C(=O)N[C@@H](Cc1c[nH]c2ccccc12)C(=O)N[C@@H](Cc1cnc[nH]1)C(=O)N[C@H](C(=O)N[C@@H](Cc1ccccc1)C(=O)NCC(N)=O)[C@@H](C)O)C(C)C
17 | 0.922 | CC(=O)N[C@@H](CS)C(=O)N[C@@H](CCC(N)=O)C(=O)N[C@H](C(=O)N[C@@H](Cc1c[nH]c2ccccc12)C(=O)N[C@@H](CCC(N)=O)C(=O)N[C@@H](CS)C(=O)N[C@@H](Cc1ccc(O)cc1)C(=O)N[C@@H](Cc1c[nH]c2ccccc12)C(=O)N[C@@H](CCCNC(=N)N)C(=O)N[C@@H](CCCNC(=N)N)CC(=O)N[C@H](C(=O)N[C@@H](CC(N)=O)C(=O)NCC(=O)NCCOCC(=O)N[C@H](CCCCN)C(N)=O)C(C)C)[C@@H](C)O
18 | > 1 | CC(=O)N[C@@H](CS)C(=O)N[C@@H](C)C(=O)N[C@@H](CC(=O)O)C(=O)N[C@@H](Cc1c[nH]c2ccccc12)C(=O)N[C@H](C(=O)N[C@@H](CS)C(=O)N[C@@H](Cc1ccc(O)cc1)C(=O)N[C@@H](Cc1c[nH]c2ccccc12)C(=O)N[C@@H](Cc1cnc[nH]1)C(=O)N[C@H](C(=O)N[C@@H](CCCCN)C(=O)NCC(=O)O)[C@@H](C)O)C(C)C
19 | 0.5 to 1 | CC(=O)N[C@@H](CC(=O)O)C(=O)N[C@H](C(=O)N1CCC[C@H]1C(=O)N[C@@H](CCCNC(=N)N)C(=O)N[C@@H](CS)C(=O)N[C@@H](CCCNC(=N)N)C(=O)N[C@H](C(=O)N[C@@H](Cc1c[nH]c2ccccc12)C(=O)N[C@@H](CCC(=O)O)C(=O)N[C@@H](CS)C(=O)N[C@@H](Cc1ccc(O)cc1)C(=O)N[C@@H](Cc1c[nH]c2ccccc12)C(=O)N[C@@H](Cc1cnc[nH]1)C(=O)N[C@H](C(=O)N[C@@H](Cc1ccccc1)C(=O)NCC(N)=O)[C@@H](C)O)[C@@H](C)O)[C@@H](C)O

Reference: ChEMBL document CHEMBL4417631, “Oral peptide inhibitors of interleukin-23 receptor and their use to treat inflammatory bowel diseases” (2017)
